Data published in patent publication US20260216205A1, “SYSTEMS AND METHODS FOR TREATING HEART FAILURE WITH PRESERVED EJECTION FRACTION” (INVIVOSCIENCES INC., priority 2023, published 2026).
Entries after “also recorded” stand apart in the source; their conditions may differ.

Key:
[1] = tested on: alpha-1 adrenoceptors; conditions: read-out: IC50, affinity for alpha-1 adrenoceptors; cited from earlier work
[2] = tested on: human micro-heart tissues (NuHeart); assay: Mature NuHeart micro-heart tissue with and without TGFβ: length-tension, contractile force, ISO response, αSM actin; assay type: cell-based
Method: FIG. 11C-11F graphically show length-tension relationships of cardiac systolic ([…]) and diastolic (FIG. 10E, FIG. 10F) curves, monitored>30 days with and without TGFβ (10 ng/mL).
FIG. 11G is a bar graph illustrating that the positive inotropic response to ISO ([…]) were compared with and without TGFβ (bars=s.d., n=7) at the end of 35-day tissue development.
FIG. 11I-11J show profiles of cardiac contractile force with and without TGFβ.
A semi-automated, multi-point quality control (QC) production-process fabricated mature micro-heart tissues in 96-well format. The patient-derived (or gene-edited) iPSCs that were passed the QC test of pluripotency and purity go through the next step. This robust protocol of iPSC differentiation produced cardiomyocytes and non-muscle cells. Various parameters were optimized to produce highly purified (>95%) cardiomyocytes and cardiac non-muscle cells. Various differentiation techniques, a culture robot ACTRO™, and culture media may be used for cardiomyocyte (CM) differentiation and maintenance development and validation. FIGS. 9A-9D show mass-produced micro-heart tissues and their mature phenotype, which were assessed for their response to various positive inotropic and chronotropic agents (FIGS. 10A-10D). To grow mature micro-heart tissue, physiological (15% strain=~2.13 μm sarcomere length) stretching cycles were applied, in addition to constant bi-phasic, low energy (5-10 V, 1 ms duration) electrical stimulation, and maturation medium containing appropriate concentrations and combinations of fatty acids and other factors, including triiodothyronine, dexamethasone, taurine, creatine, and L-carnitine were used.
Human micro-heart tissues cultured for 35 days with electrical stimulation matured and loose its spontaneous beating. Myocardial fibrosis is more prevalent in HFpEF than in control, and Transforming growth factor beta (TGFβ) is a major profibrotic factor. […] The elevated diastolic stiffness and loss of contractile reserve are common in HFpEF patients. Some HFpEF patients, including hypertrophic cardiomyopathy, show a hypercontractile phenotype. A TGF-β signaling pathway in the pathogenesis of diabetes mellitus (DM) is well-known. Moreover, in rat models, the presence of diabetes led to the induction of a fetal gene program, typically seen in the setting of TGF-β over-expression and hypertrophy. Therefore, human induced pluripotent stem cell (iPSC) derived micro-heart tissue (NuHeart™ micro-heart tissue) will be used with TGFβ-treatment as a base of the proposed studies.
A force probe stretching approach was used to record the length-tension relationship to analyze cardiac contractility and stiffness of micro-heart tissue. Micro force-transducers (FIG. 11) of the mechanical assay device, Palpator™, measured resistance forces that were required to stretch micro-heart tissue growing in 96-well plates. As the probe moved down by a motorized arm, samples' cardiac contractile and baseline forces were measured at different tissue lengths. Sarcomere length was calibrated to strain (% of stretch over original sample length) according to a published protocol (Asnes, C. F. et al. Biophys. J. 2006. 91(5): pp. […]). (Fourier analysis of sarcomere patterns in fixed micro-heart tissue). In addition, other biological indicators such as calcium transients and action potential are measured using biological indicator dyes and high throughput microplate readers (FIGS. 13A-C). For example, micro-heart tissue with cardiomyocytes derived from gene-edited iPSC-derived cardiomyocytes was fabricated with a cardiac troponin T R92Q mutation (familial hypertrophic cardiomyopathy, i.e., “[…]”).

[3] = intravenous formulations; Satoh et al., Life Sci 2001; cited from earlier work
[4] = tested on: tissue constructs reconstituted with human fibroblasts / myofibroblasts; assay: Biomechanical phenotyping assay: isometric force on stretched bioengineered tissue constructs; assay type: cell-based
Excerpt: Fasudil (FIG. 1) is a small molecule inhibitor of Rho-kinase (ROCK) that regulates its downstream signal transduction pathways and biological activities, including smooth muscle cells' contractility. InvivoSciences's biomechanical phenotyping assay recorded isometric force by stretching bioengineered tissue-constructs (see, U.S. Pat. No. 10,732,174). The tissue constructs were reconstituted with human fibroblasts that recapitulate connective tissues. Those tissue constructs reconstituted with myofibroblasts recapitulate connective tissue developing fibrosis.

[5] = tested on: engineered heart tissues (EHTs) derived from human induced pluripotent stem cells; assay: Long-term fasudil effects on engineered heart tissues (EHTs) with and without TGFβ, stress versus strain; assay type: cell-based; conditions: short-term administration (less than 24 hours)
[6] = tested on: human micro-heart tissues (iPSC-derived cardiomyocytes and non-muscle cells, mainly fibroblasts); assay: Biomechanical assay (length-tension) on micro-heart tissue constructs; assay type: cell-based; conditions: for micro-heart tissue construct's stiffness (diastolic/passive stiffness): FIG. 7B
Excerpt: The micro-heart tissue fabrication process produced micro-heart tissues using human cardiomyocytes derived from induced pluripotent stem cells (iPSCs) and non-muscle cells, mainly fibroblasts. Therefore, fasudil is a promising drug candidate to reduce elevated diastolic stiffness of patients with heart failure with preserved ejection fraction (HFpEF). The development of fibrosis in the heart is observed in various types of cardiomyopathies, and heart failure (HF). Myocardial interstitial fibrosis, for example, contributes to left ventricular dysfunction leading to the development of heart failure. Fibrotic myocardium becomes stiffer than healthy tissue to develop diastolic dysfunction. Fasudil targets Rho-kinase (ROCK) that regulates the activity of non-muscle myosin independent of calcium homeostasis. Human cardiac fibroblasts express ROCK1 and ROCK2, which both regulate non-muscle cell contractility similarly. The reduction of ROCK2 had notable effects on the profibrotic gene (FIGS. 7A-B) and protein expression (FIGS. 7A-B).
A force probe stretching approach was used to record the length-tension relationship to analyze cardiac contractility and stiffness of micro-heart tissue. Micro force-transducers (FIG. 11) of the mechanical assay device, Palpator™, measured resistance forces that were required to stretch micro-heart tissue growing in 96-well plates. As the probe moved down by a motorized arm, samples' cardiac contractile and baseline forces were measured at different tissue lengths. Sarcomere length was calibrated to strain (% of stretch over original sample length) according to a published protocol (Asnes, C. F. et al. Biophys. J. 2006. 91(5): pp. 1800-1180). (Fourier analysis of sarcomere patterns in fixed micro-heart tissue). In addition, other biological indicators such as calcium transients and action potential are measured using biological indicator dyes and high throughput microplate readers (FIGS. 13A-C). […]

[7] = tested on: engineered heart tissues (EHTs) derived from human induced pluripotent stem cells; assay: Long-term fasudil effects on engineered heart tissues (EHTs) with and without TGFβ, stress versus strain; assay type: cell-based
Method: FIGS. 16A-16D graphically illustrate the long-term effects of fasudil. The rates of stretch relative to the unstretched tissue length are depicted as strain (error bar=standard deviation of error). Number of samples are 2 or 4 in each condition.
To exemplify this patient stratification process, engineered heart tissues (EHTs) were prepared, the tissues containing cardiac fibroblasts (10% of cardiomyocytes at fabrication) derived from human induced pluripotent stem cells (iPSCs). Five days post-fabrication, one half of the engineered heart tissues (EHTs) was cultured regularly (FIG. 16A and FIG. 16C), and the other half was treated with 1 ng/mL TGFβ (FIG. 16B and FIG. 16D). […] The effect was clearly represented in the elevated passive stress-strain curve and its slope represented by the closed circles (0 μM fasudil data points) in FIG. 16C and FIG. 16D.
After 15 days, the EHTs, both with and without TGFβ treatment, were administered fasudil at concentrations of […] (FIGS. 16A-16D). […] However, by day 29, fasudil reduced cardiac contractility in EHTs, irrespective of TGFβ treatment.

[8] = NuHeart micro-heart tissue without TGFβ
[9] = long-term administration (3-14 days)
[10] = TGFβ-treated micro-heart (10 ng/mL, monitored >30 days)

Molecule: CN1CCN(C2=Nc3cc(F)ccc3Cc3ccccc32)CC1 [Fluperlapine]
- IC50 [1]: ~10 nM

Molecule: CC(C)NCC(O)c1ccc(O)c(O)c1 (stereo not shown) [ISO, isoproterenol]
- contractile amplitude [2, 8]: increased
- duration of contraction (chrotropic response) [2, 8]: shortened
- response of mature micro-heart tissues ([2]; after isoproterenol (ISO) treatment): positive inotropic and chronotropic responses
- response of contractile force to ISO ([2]; micro-heart tissue with TGFβ): blunted response

Molecule: O=S(=O)(c1cccc2cnccc12)N1CCCNCC1 [fasudil, Fasudil]
- plasma concentration [3]: approximately 0.36 μM
- contractility of tissue constructs [4]: reduced
- tissue stiffness of tissue constructs [4]: reduced
- cardiac contractility in EHTs [5]: without significantly affecting
- passive stiffness in EHTs [5]: effectively reduced
- cardiac contractility of the micro-heart tissues ([6]; FIG. 7A): did not change
- micro-heart tissue construct's stiffness (diastolic/passive stiffness) [6]: reduced the micro-heart tissue construct's stiffness dose-dependently
- micro-heart tissue construct's stiffness (diastolic/passive stiffness) ([6]; listed as Fasudil): reduced
- cardiac contractility in TGFβ-treated EHTs ([7]; 10 μM fasudil, by day 29): substantially reduce
- effect on passive stiffness, TGFβ-treated tissues versus untreated ([7]; TGFβ-treated (1 ng/mL) EHTs): more pronounced effect
- passive stiffness of EHTs ([7]; both with and without TGFβ (1 ng/mL) treatment, fasudil 1, 3, 10 µM): effectively reduced
- cardiac contractility in EHTs ([7]; by day 29, irrespective of TGFβ treatment): reduced
- cardiac contractility in EHTs [7, 9]: reduce
- passive stiffness in EHTs [7, 9]: reduce
- impact on cardiac contractility ([7]; one day after treatment (data not shown)): less significant

Molecule: Transforming growth factor beta [TGFβ]
- αSM actin expression ([2]; TGFβ treated sample, Western blot): increased expression; also recorded: elevated
- cardiac contractility of micro-heart [2, 10]: increasing
- diastolic stress (stiffening) of micro-heart [2, 10]: increasing
- ISO-induced positive inotropic and chronotropic responses ([2]; chronic TGFβ treatment): impaired
- passive stiffness of EHTs ([7]; 1 ng/mL TGFβ from five days post-fabrication, 0 μM fasudil): increased
